Experimental data reported in EP0116439A2, “Fatty acid containing hair tonic composition” (priority 1983, dated 1984).

Tests used:
[1] = molecular target: testosterone 5α-reductase; test: testosterone 5α-reductase inhibitory activity (conversion of labelled testosterone to 5α-dihydrotestosterone); format: biochemical, rats; details: microsome from rat prostate gland cells, 25°C, 60 minutes, pH 6.6
Protocol: The Sa-reductase inhibitory activity was determined as follows.
Prostate gland cells of rats were crushed and a specimen of testosterone 5α-reductase was then prepared by separating microsome from the crushed liquid mixture. The conversion of the testosterone to 5α-dihydrotestosterone by the use of the above-prepared enzyme specimen was monitored by radioisotopically labelled testosterone. The reaction mixture was extracted with ethyl acetate and the extract was developed twice by silica gel thin layer chromatography (solvent system, dichloromethane: cyclohexane:acetone = 15:4:1). The amount of 5α-dihydrotestosterone were determined from the intensities of the radioactivity.
A 30 µl amount of a 0.05 M phosphate buffer (pH = 6.6), 10 µl of an enzyme specimen, 8.5 pmol of labelled testosterone, 50 nmol of a reduced form of NADP (nicotinamide adenine dinucleotide phosphate), and 10 µl of a test sample were mixed (final volume = 50 µl). The mixture was included at a temperature of 25°C for 60 minutes.
The reaction was stopped by the addition of 100 ul of ethyl acetate, and the reaction mixture was extracted by vigorous shaking. The extract was developed in the same manner as mentioned above and the intensity of the radioisotope was measured by using a scintillation counter.
The above-mentioned determination was applied to the samples having various concentrations. The 5a--reductase inhibitory activity was obtained as a inhibitory rate (%) or a 50% inhibitory concentration (^IC50).

male rabbits = test: fur growth on shorn back of rabbits; format: in vivo; parameters: Difference b, Average: unit not given here; details: for Grown fur length Test side a', Average: 0.2% fatty acid solution in 80% aqueous ethanol; for Difference b, Average: test side minus control side, 0.2% fatty acid solution
Protocol: Ten week old male rabbits were shorn on the back. A 0.2% fatty acid solution in 80% aqueous ethanol solution was applied, twice a day, to a half-side of the shorn portion of each rabbit for one week. As a control, a 80% aqueous ethanol solution was also applied, twice a day, to the other half-side of the shorn portion of each rabbit for one week (two week for linoleic acid). The length of the grown fur was measured.

Compound	IC50 [1]	Grown fur length Test side a', Average (male rabbits; twice a day for one week)	Difference b, Average (male rabbits; twice a day for one week)	Grown fur length Test side a', Average (male rabbits; twice a day, two week)	Difference b, Average (male rabbits; twice a day, two week)
CCCCC/C=C\C/C=C\C/C=C\C/C=C\CCCC(=O)O [Arachidonic acid, arachidonic acid]	150 µM	7.561^*2	0.78	–	–
CCCCCCCCCCCC(=O)O [Lauric acid, lauric acid]	600 µM	5.667^*2	0.776	–	–
CCCCC/C=C\C/C=C\CCCCCCCC(=O)O [Linoleic acid, linoleic acid]	180 µM	–	–	9.98^*2	0.43
CC/C=C\C/C=C\C/C=C\CCCCCCCC(=O)O [Linolenic acid, linolenic acid]	–	5.46^*2	0.45	–	–
CCCCCCCCCCCCCC(=O)O [Myristic acid, myristic acid]	1800 µM	6.583^*2	0.661	–	–
CCCCCCCC/C=C\CCCCCCCC(=O)O [Oleic Acid, oleic acid]	320 µM	6.102^*2	0.626	–	–
CCCCCCCCCCCCCCCC(=O)O [Palmitic acid, palmitic acid]	300 µM	6.056^*2	0.958	–	–
CCCCCC/C=C\CCCCCCCC(=O)O [Palmitoleic acid, palmitoleic acid]	180 µM	8.051^*2	0.862	–	–
CCC=CC=CC=CC=CCCCCCCCC(=O)O [Parinaric acid, parinaric acid]	1100 µM	6.83^*2	0.60	–	–
CCCCCCCCCCC/C=C\CCCCC(=O)O [Petroselinic acid, petroselinic acid]	280 µM	6.66^*2	0.50	–	–
CCCCCCCCCC(=O)O [n-Capric acid, n-capric acid]	500 µM	7.542^*2	0.557	–	–
CCCCCCCC(=O)O [n-Caprylic acid, n-caprylic acid]	1700 µM	5.38^*2	0.32	–	–
